System: PRISM DNA-barcoded human tumour cell lines
Test: PRISM pooled cell viability assay;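 as to PRISM AUC: 8 threefold dilutions from 10 µM with 5 days of exposure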
Format: cell-based
Set-up: AUC (PRISM viability) / AUC (PRISM): unit not given beside the values
Settings: for AUC (PRISM viability): WT; for PRISM AUC: KRAS MUT
Experimental: Cells were then lysed in TCL mRNA lysis buffer, and then PCR with reverse transcription was performed. Detection of the barcodes and univariate and multivariate analysis was then performed as previously described. Data analysis is described in the Supplementary Methods. Up-to-date code for our analysis is at the github link: https://github.com/cmap/dockerized_mts.
For every gene with non-silent mutations in at least four cell-lines, we compared the AUC values between cells with and without those mutations using a t-test. This analysis was carried out for: (i) the full dataset; (ii) excluding cell lines with non-silent KRAS mutations; and (iii) excluding cell lines that have either KRAS or NRAS non-silent mutations.

## CCn1c(-c2cc(N3CCN(C4CC4)CC3)cnc2[C@H](C)OC)c2c3cc(ccc31)-c1csc(n1)C[C@H](NC(=O)[C@H]1[C@@H]3COC[C@@H]31)C(=O)N1CCC[C@H](N1)C(=O)OCC(C)(C)C2 [RMC-7977]
SCC25_UPPER_AERODIGESTIVE_TRACT
  AUC (PRISM viability): 0.3367
SCLC21H_LUNG
  AUC (PRISM viability): 0.9496
SEM_HAEMATOPOIETIC_AND_LYMPHOID_TISSUE
  AUC (PRISM viability): 0.8793
SF126_CENTRAL_NERVOUS_SYSTEM
  AUC (PRISM viability): 0.7112
SF295_CENTRAL_NERVOUS_SYSTEM
  AUC (PRISM viability): 0.7908
SF539_CENTRAL_NERVOUS_SYSTEM
  AUC (PRISM viability): 0.7182
SH4_SKIN
  AUC (PRISM viability): 0.8584
SH10TC_STOMACH
  PRISM AUC: 0.4138
SHP77_LUNG
  PRISM AUC: 0.4654
SIMA_AUTONOMIC_GANGLIA
  AUC (PRISM viability): 0.5854
SKES1_BONE
  AUC (PRISM viability): 0.8807
SKHEP1_LIVER
  AUC (PRISM viability): 0.7844
SKLMS1_SOFT_TISSUE
  AUC (PRISM viability): 0.3954
SKLU1_LUNG
  PRISM AUC: 0.1796
SKMEL3_SKIN
  AUC (PRISM viability): 1
SKMEL5_SKIN
  AUC (PRISM viability): 0.8492
SKMEL24_SKIN
  AUC (PRISM viability): 0.8551
SKMEL28_SKIN
  AUC (PRISM viability): 0.8799
SKMEL30_SKIN
  AUC (PRISM viability): 0.2141
SKMES1_LUNG
  AUC (PRISM viability): 0.4907
SKNAS_AUTONOMIC_GANGLIA
  AUC (PRISM viability): 0.2639
SKNBE2_AUTONOMIC_GANGLIA
  AUC (PRISM viability): 0.4969
SKNDZ_AUTONOMIC_GANGLIA
  AUC (PRISM viability): 0.7338
SKNMC_BONE
  AUC (PRISM viability): 0.8913
SKNO1_HAEMATOPOIETIC_AND_LYMPHOID_TISSUE
  AUC (PRISM viability): 0.4958
SKOV3_OVARY
  AUC (PRISM viability): 0.8555
SKUT1_SOFT_TISSUE
  AUC (PRISM viability): 0.8493
SNB75_CENTRAL_NERVOUS_SYSTEM
  AUC (PRISM viability): 0.7551
SNGM_ENDOMETRIUM
  PRISM AUC: 0.5073
SNU1_STOMACH
  PRISM AUC: 0.47
SNU46_UPPER_AERODIGESTIVE_TRACT
  AUC (PRISM viability): 0.6229
SNU61_LARGE_INTESTINE
  PRISM AUC: 0.1577
SNU182_LIVER
  AUC (PRISM viability): 1
SNU201_CENTRAL_NERVOUS_SYSTEM
  AUC (PRISM viability): 0.8111
SNU213_PANCREAS
  PRISM AUC: 0.2216
SNU216_STOMACH
  AUC (PRISM viability): 0.4345
SNU245_BILIARY_TRACT
  AUC (PRISM viability): 0.5897
SNU308_BILIARY_TRACT
  AUC (PRISM viability): 0.4973
SNU398_LIVER
  AUC (PRISM viability): 0.9232
SNU407_LARGE_INTESTINE
  PRISM AUC: 0.42
SNU410_PANCREAS
  PRISM AUC: 0.5771
SNU423_LIVER
  AUC (PRISM viability): 0.6851
SNU449_LIVER
  AUC (PRISM viability): 0.7416
SNU466_CENTRAL_NERVOUS_SYSTEM
  AUC (PRISM viability): 0.3575
SNU489_CENTRAL_NERVOUS_SYSTEM
  AUC (PRISM viability): 0.8437
SNU601_STOMACH
  PRISM AUC: 0.2276
SNU685_ENDOMETRIUM
  AUC (PRISM viability): 0.8482
SNU719_STOMACH
  AUC (PRISM viability): 0.2772
SNU761_LIVER
  AUC (PRISM viability): 0.9921
SNU840_OVARY
  AUC (PRISM viability): 0.3829
SNU869_BILIARY_TRACT
  PRISM AUC: 0.3809
SNU878_LIVER
  AUC (PRISM viability): 0.7757
SNU886_LIVER
  AUC (PRISM viability): 0.4222
SNU899_UPPER_AERODIGESTIVE_TRACT
  AUC (PRISM viability): 0.2281
SNU1076_UPPER_AERODIGESTIVE_TRACT
  AUC (PRISM viability): 0.2341
SNU1077_ENDOMETRIUM
  AUC (PRISM viability): 0.9228
SNU1079_BILIARY_TRACT
  AUC (PRISM viability): 0.7613
SNU1105_CENTRAL_NERVOUS_SYSTEM
  AUC (PRISM viability): 0.4704
SNU1196_BILIARY_TRACT
  AUC (PRISM viability): 0.9637
SNU1214_UPPER_AERODIGESTIVE_TRACT
  AUC (PRISM viability): 0.179
SNUC2A_LARGE_INTESTINE
  PRISM AUC: 0.7905
SNUC4_LARGE_INTESTINE
  AUC (PRISM viability): 0.612
SQ1_LUNG
  AUC (PRISM viability): 0.3633
SR786_HAEMATOPOIETIC_AND_LYMPHOID_TISSUE
  AUC (PRISM viability): 0.6127
SUIT2_PANCREAS
  PRISM AUC: 0.4229
SW480_LARGE_INTESTINE
  PRISM AUC: 0.2548
SW579_THYROID
  AUC (PRISM viability): 0.4828
SW620_LARGE_INTESTINE
  PRISM AUC: 0.1434
SW780_URINARY_TRACT
  AUC (PRISM viability): 0.559
SW900_LUNG
  PRISM AUC: 0.3401
SW1088_CENTRAL_NERVOUS_SYSTEM
  AUC (PRISM viability): 0.6279
SW1271_LUNG
  AUC (PRISM viability): 0.5768
SW1353_BONE
  AUC (PRISM viability): 0.841
SW1710_URINARY_TRACT
  AUC (PRISM viability): 0.7469
SW1783_CENTRAL_NERVOUS_SYSTEM
  AUC (PRISM viability): 0.7461
SW1990_PANCREAS
  PRISM AUC: 0.4703
T3M10_LUNG
  PRISM AUC: 0.7347
T24_URINARY_TRACT
  AUC (PRISM viability): 0.4656
T47D_BREAST
  AUC (PRISM viability): 0.8281
T84_LARGE_INTESTINE
  PRISM AUC: 0.5086
T98G_CENTRAL_NERVOUS_SYSTEM
  AUC (PRISM viability): 0.6265
TALL1_HAEMATOPOIETIC_AND_LYMPHOID_TISSUE
  AUC (PRISM viability): 0.6203
TC32_BONE
  AUC (PRISM viability): 0.7163
TC71_BONE
  AUC (PRISM viability): 0.7602
TCCPAN2_PANCREAS
  PRISM AUC: 0.4522
TCCSUP_URINARY_TRACT
  AUC (PRISM viability): 0.7623
TE1_OESOPHAGUS
  AUC (PRISM viability): 0.7271
TE5_OESOPHAGUS
  AUC (PRISM viability): 0.4124
TE6_OESOPHAGUS
  AUC (PRISM viability): 0.4273
TE8_OESOPHAGUS
  AUC (PRISM viability): 0.499
TE9_OESOPHAGUS
  AUC (PRISM viability): 0.6448
TE10_OESOPHAGUS
  AUC (PRISM viability): 0.472
TE11_OESOPHAGUS
  AUC (PRISM viability): 0.5416
TE14_OESOPHAGUS
  AUC (PRISM viability): 0.4491
TE15_OESOPHAGUS
  AUC (PRISM viability): 0.2922
TE617T_SOFT_TISSUE
  AUC (PRISM viability): 0.2711
TF1_HAEMATOPOIETIC_AND_LYMPHOID_TISSUE
  AUC (PRISM viability): 0.2378
THP1_HAEMATOPOIETIC_AND_LYMPHOID_TISSUE
  AUC (PRISM viability): 0.3541
TM31_CENTRAL_NERVOUS_SYSTEM
  AUC (PRISM viability): 0.8811
TOV21G_OVARY
  PRISM AUC: 0.5751
TOV112D_OVARY
  AUC (PRISM viability): 0.6714
TT2609C02_THYROID
  AUC (PRISM viability): 0.2965
TT_OESOPHAGUS
  AUC (PRISM viability): 0.5096
TT_THYROID
  AUC (PRISM viability): 1
TUHR4TKB_KIDNEY
  AUC (PRISM viability): 1
TYKNU_OVARY
  AUC (PRISM viability): 0.2088
U2OS_BONE
  AUC (PRISM viability): 0.5581
U87MG_CENTRAL_NERVOUS_SYSTEM
  AUC (PRISM viability): 0.5899
U118MG_CENTRAL_NERVOUS_SYSTEM
  AUC (PRISM viability): 0.8323
U178_CENTRAL_NERVOUS_SYSTEM
  AUC (PRISM viability): 0.6826
U251MG_CENTRAL_NERVOUS_SYSTEM
  AUC (PRISM viability): 0.531
U343_CENTRAL_NERVOUS_SYSTEM
  AUC (PRISM viability): 0.5615
U937_HAEMATOPOIETIC_AND_LYMPHOID_TISSUE
  AUC (PRISM viability): 0.5098
UACC62_SKIN
  AUC (PRISM viability): 0.8484
UACC257_SKIN
  AUC (PRISM viability): 0.9461
UMUC1_URINARY_TRACT
  AUC (PRISM viability): 0.3417
UO31_KIDNEY
  AUC (PRISM viability): 0.7674
VMCUB1_URINARY_TRACT
  AUC (PRISM viability): 0.3401
VMRCRCW_KIDNEY
  AUC (PRISM viability): 0.6728
VMRCRCZ_KIDNEY
  AUC (PRISM viability): 0.8522
WM88_SKIN
  AUC (PRISM viability): 0.8971
WM793_SKIN
  AUC (PRISM viability): 0.8157
WM983B_SKIN
  AUC (PRISM viability): 0.8254
WM1799_SKIN
  AUC (PRISM viability): 0.8407
WM2664_SKIN
  AUC (PRISM viability): 1
WSUDLCL2_HAEMATOPOIETIC_AND_LYMPHOID_TISSUE
  AUC (PRISM viability): 0.6176
YAPC_PANCREAS
  PRISM AUC: 0.2462
YD8_UPPER_AERODIGESTIVE_TRACT
  PRISM AUC: 0.7835
YD10B_UPPER_AERODIGESTIVE_TRACT
  AUC (PRISM viability): 0.2966
YD15_SALIVARY_GLAND
  AUC (PRISM viability): 0.5241
YD38_UPPER_AERODIGESTIVE_TRACT
  AUC (PRISM viability): 0.2157
YH13_CENTRAL_NERVOUS_SYSTEM
  AUC (PRISM viability): 0.7662
YKG1_CENTRAL_NERVOUS_SYSTEM
  AUC (PRISM viability): 0.6011
ZR751_BREAST
  AUC (PRISM viability): 0.8548

Source: article PMC11111408, “Concurrent inhibition of oncogenic and wild-type RAS-GTP for cancer therapy” (Nature, 2024)
